# Experimental data taken from ChEMBL document CHEMBL4270599, “Synthesis of a 3'-C-ethynyl-β-d-ribofuranose purine nucleoside library: Discovery of C7-deazapurine analogs as potent antiproliferative nucleosides” (Eur J Med Chem, 2018).
# Columns and labels:
# Assay type in all cases: functional
# [1] = test system: HOP-62; assay: Cytotoxicity against human HOP62 cells after 48 hrs by SRB assay; conditions: HOP-62, 48 h
# [2] = test system: NCI-H322M; assay: Cytotoxicity against human NCI-H322M cells after 48 hrs by SRB assay; conditions: for CC50: read-out: pLC50 (the source's name) (converted)
# [3] = test system: HCT-116; assay: Cytotoxicity against human HCT116 cells after 48 hrs by SRB assay; conditions: HCT-116, 48 h; for CC50: read-out: pLC50 (the source's name) (converted)
# [4] = test system: HT-29; assay: Cytotoxicity against human HT-29 cells after 48 hrs by SRB assay; conditions: HT-29, 48 h
# [5] = test system: OVCAR-5; assay: Cytotoxicity against human OVCAR5 cells after 48 hrs by SRB assay; conditions: OVCAR-5, 48 h
# [6] = test system: Hs-578T; assay: Cytotoxicity against human Hs 578T cells after 48 hrs by SRB assay
# [7] = test system: RPMI-8226; assay: Growth inhibition of human RPMI8226 cells assessed as cell growth at 10^-8 M incubated for 48 hrs by sulforhodamine B assay relative to control; conditions: RPMI-8226, 48 h, read-out: Activity
# [8] = test system: NCI-H23; assay: Growth inhibition of human NCI-H23 cells assessed as cell growth at 10^-8 M incubated for 48 hrs by sulforhodamine B assay relative to control; conditions: NCI-H23, 48 h, read-out: Activity
# [9] = test system: NCI-H322M; assay: Growth inhibition of human NCI-H322M cells assessed as cell growth at 10^-8 M incubated for 48 hrs by sulforhodamine B assay relative to control; conditions: read-out: Activity
# [10] = test system: COLO 205; assay: Growth inhibition of human COLO205 cells assessed as cell growth at 10^-8 M incubated for 48 hrs by sulforhodamine B assay relative to control; conditions: COLO 205, 48 h, read-out: Activity
# [11] = test system: NCI-H460; assay: Growth inhibition of human NCI-H460 cells assessed as cell growth at 10^-7 M incubated for 48 hrs by sulforhodamine B assay relative to control; conditions: NCI-H460, 48 h, read-out: Activity
# [12] = test system: HT-29; assay: Growth inhibition of human HT-29 cells assessed as cell growth at 10^-7 M incubated for 48 hrs by sulforhodamine B assay relative to control; conditions: HT-29, 48 h, read-out: Activity
# [13] = test system: SNB-75; assay: Growth inhibition of human SNB75 cells assessed as cell growth at 10^-7 M incubated for 48 hrs by sulforhodamine B assay relative to control; conditions: SNB-75, 48 h, read-out: Activity
# [14] = test system: U-251; assay: Growth inhibition of human U251 cells assessed as cell growth at 10^-7 M incubated for 48 hrs by sulforhodamine B assay relative to control; conditions: U-251, 48 h, read-out: Activity
# [15] = test system: SK-OV-3; assay: Growth inhibition of human SKOV3 cells assessed as cell growth at 10^-7 M incubated for 48 hrs by sulforhodamine B assay relative to control; conditions: SK-OV-3, 48 h, read-out: Activity
# [16] = test system: UO-31; assay: Growth inhibition of human UO31 cells assessed as cell growth at 10^-7 M incubated for 48 hrs by sulforhodamine B assay relative to control; conditions: UO-31, 48 h, read-out: Activity
# [17] = test system: PC-3; assay: Growth inhibition of human PC3 cells assessed as cell growth at 10^-7 M incubated for 48 hrs by sulforhodamine B assay relative to control; conditions: PC-3, 48 h, read-out: Activity
# [18] = test system: MCF7; assay: Growth inhibition of human MCF7 cells assessed as cell growth at 10^-7 M incubated for 48 hrs by sulforhodamine B assay relative to control; conditions: MCF7, 48 h, read-out: Activity
# [19] = test system: EKVX; assay: Growth inhibition of human EKVX cells assessed as cell growth at 10^-6 M incubated for 48 hrs by sulforhodamine B assay relative to control; conditions: read-out: Activity
# [20] = test system: NCI-H23; assay: Growth inhibition of human NCI-H23 cells assessed as cell growth at 10^-6 M incubated for 48 hrs by sulforhodamine B assay relative to control; conditions: NCI-H23, 48 h, read-out: Activity
# [21] = test system: NCI-H322M; assay: Growth inhibition of human NCI-H322M cells assessed as cell growth at 10^-6 M incubated for 48 hrs by sulforhodamine B assay relative to control; conditions: read-out: Activity
# [22] = test system: SF-268; assay: Growth inhibition of human SF268 cells assessed as cell growth at 10^-6 M incubated for 48 hrs by sulforhodamine B assay relative to control; conditions: SF-268, 48 h, read-out: Activity
# [23] = test system: SK-MEL-2; assay: Growth inhibition of human SK-MEL-2 cells assessed as cell growth at 10^-6 M incubated for 48 hrs by sulforhodamine B assay relative to control; conditions: SK-MEL-2, 48 h, read-out: Activity
# [24] = test system: OVCAR-3; assay: Growth inhibition of human OVCAR3 cells assessed as cell growth at 10^-6 M incubated for 48 hrs by sulforhodamine B assay relative to control; conditions: OVCAR-3, 48 h, read-out: Activity
# [25] = test system: OVCAR-4; assay: Growth inhibition of human OVCAR4 cells assessed as cell growth at 10^-6 M incubated for 48 hrs by sulforhodamine B assay relative to control; conditions: OVCAR-4, 48 h, read-out: Activity
# [26] = test system: 786-0; assay: Growth inhibition of human 786-0 cells assessed as cell growth at 10^-6 M incubated for 48 hrs by sulforhodamine B assay relative to control; conditions: 786-0, 48 h, read-out: Activity
# [27] = test system: HCT-116; assay: Growth inhibition of human HCT116 cells assessed as cell growth at 10^-5 M incubated for 48 hrs by sulforhodamine B assay relative to control; conditions: HCT-116, 48 h, read-out: Activity
# [28] = test system: HCT-15; assay: Growth inhibition of human HCT15 cells assessed as cell growth at 10^-5 M incubated for 48 hrs by sulforhodamine B assay relative to control; conditions: HCT-15, 48 h, read-out: Activity
# [29] = test system: SF-268; assay: Growth inhibition of human SF268 cells assessed as cell growth at 10^-5 M incubated for 48 hrs by sulforhodamine B assay relative to control; conditions: SF-268, 48 h, read-out: Activity
# [30] = test system: IGROV-1; assay: Growth inhibition of human IGROV1 cells assessed as cell growth at 10^-4 M incubated for 48 hrs by sulforhodamine B assay relative to control; conditions: IGROV-1, 48 h, read-out: Activity
# [31] = test system: NCI/ADR-RES; assay: Growth inhibition of human NCI/ADR-RES cells assessed as cell growth at 10^-4 M incubated for 48 hrs by sulforhodamine B assay relative to control; conditions: read-out: Activity
# [32] = test system: UACC-62; assay: Growth inhibition of human UACC62 cells assessed as cell growth at 10^-6 M incubated for 48 hrs by sulforhodamine B assay relative to control; conditions: UACC-62, 48 h, read-out: Activity
# [33] = read-out: pLC50 (the source's name) (converted)
# [34] = read-out: LC50 (the source's name)
smiles,measurement,setting,value
C#C[C@@]1(O)[C@@H](CO)O[C@@H](n2ccc3c(N)ncnc32)[C@@H]1O,TGI,[1]; read-out: TGI,7.91 µM
same,GI50,[1]; read-out: pGI50 (converted),2.04 µM
same,CC50,[1]; [33],> 100 µM
same,TGI,[1]; read-out: pTGI (converted),7.94 µM
same,TGI,[2]; read-out: TGI,6.08 µM
same,GI50,[2]; read-out: pGI50 (converted),1.29 µM
same,CC50,[2],50.1 µM
same,TGI,[2]; read-out: pTGI (converted),6.03 µM
same,TGI,[3]; read-out: TGI,10.8 µM
same,GI50,[3]; read-out: pGI50 (converted),0.589 µM
same,CC50,[3],85.1 µM
same,TGI,[3]; read-out: pTGI (converted),10.7 µM
same,CC50,[4]; [34],> 100 µM
same,TGI,[4]; read-out: TGI,10 µM
same,GI50,[4]; read-out: pGI50 (converted),0.977 µM
same,TGI,[4]; read-out: pTGI (converted),10 µM
same,TGI,[5]; read-out: TGI,8.54 µM
same,GI50,[5]; read-out: pGI50 (converted),3.09 µM
same,CC50,[5]; [33],> 100 µM
same,TGI,[5]; read-out: pTGI (converted),8.51 µM
same,TGI,[6]; read-out: TGI,> 100 µM
same,GI50,[6]; read-out: pGI50 (converted),4.68 µM
same,CC50,[6]; [33],> 100 µM
same,TGI,[6]; read-out: pTGI,> 100 µM
same,growth at 0.01 µM,[7],103%
same,growth at 0.01 µM,[8],95%
same,growth at 0.01 µM,[9],99%
same,growth at 0.01 µM,[10],95%
same,growth at 0.1 µM,[11],91%
same,growth at 0.1 µM,[12],95%
same,growth at 0.1 µM,[13],95%
same,growth at 0.1 µM,[14],107%
same,growth at 0.1 µM,[15],92%
same,growth at 0.1 µM,[16],105%
same,growth at 0.1 µM,[17],97%
same,growth at 0.1 µM,[18],73%
same,growth at 1 µM,[19],67%
same,growth at 1 µM,[20],57%
same,growth at 1 µM,[21],58%
same,growth at 1 µM,[22],76%
same,growth at 1 µM,[23],60%
same,growth at 1 µM,[24],92%
same,growth at 1 µM,[25],75%
same,growth at 1 µM,[26],68%
same,growth at 10 µM,[27],2%
same,growth at 10 µM,[28],-24%
same,growth at 10 µM,[29],5%
same,growth at 100 µM,[30],-28%
same,growth at 100 µM,[31],-9%
same,growth at 1 µM,[32],82%
C#C[C@@]1(O)[C@@H](CO)O[C@@H](n2cc(I)c3c(N)ncnc32)[C@@H]1O,GI50,[1]; read-out: GI50,0.367 to 1.52 µM
same,CC50,[1]; [34],> 100 µM
same,TGI,[1]; read-out: TGI,6.28 to 12 µM
same,GI50,[2]; read-out: GI50,0.405 to 0.683 µM
same,TGI,[2]; read-out: TGI,7.49 to 42.8 µM
same,CC50,[2],> 100 µM
same,GI50,[3]; read-out: GI50,0.0344 to 0.0547 µM
same,TGI,[3]; read-out: TGI,> 100 µM
same,CC50,[3],> 100 µM
same,TGI,[3]; read-out: pTGI (converted),> 100 µM
same,GI50,[4]; read-out: GI50,0.0142 to 0.0397 µM
same,TGI,[4]; read-out: TGI,3.3 to 6.84 µM
same,CC50,[4]; [33],> 100 µM
same,GI50,[5]; read-out: GI50,0.515 to 1.69 µM
same,CC50,[5]; [34],> 100 µM
same,TGI,[5]; read-out: TGI,> 100 µM
same,TGI,[5]; read-out: pTGI (converted),> 100 µM
same,GI50,[6]; read-out: GI50,0.55 to 1.12 µM
same,CC50,[6]; [34],> 100 µM
same,TGI,[6]; read-out: TGI,7.12 to 8.62 µM
same,growth at 0.01 µM,[7],95 to 96%
same,growth at 0.01 µM,[8],87 to 91%
same,growth at 0.01 µM,[9],75 to 86%
same,growth at 0.01 µM,[10],79 to 98%
same,growth at 0.1 µM,[11],37 to 56%
same,growth at 0.1 µM,[12],14 to 34%
same,growth at 0.1 µM,[13],81 to 83%
same,growth at 0.1 µM,[14],40 to 45%
same,growth at 0.1 µM,[15],26 to 40%
same,growth at 0.1 µM,[16],46 to 50%
same,growth at 0.1 µM,[17],43 to 48%
same,growth at 0.1 µM,[18],18 to 25%
same,growth at 1 µM,[19],33 to 38%
same,growth at 1 µM,[20],28 to 33%
same,growth at 1 µM,[21],37 to 44%
same,growth at 1 µM,[22],49 to 55%
same,growth at 1 µM,[23],11 to 24%
same,growth at 1 µM,[24],24 to 33%
same,growth at 1 µM,[25],38 to 53%
same,growth at 1 µM,[26],13 to 23%
same,growth at 10 µM,[27],3%
same,growth at 10 µM,[28],2 to 3%
same,growth at 10 µM,[29],7%
same,growth at 100 µM,[30],2 to 3%
same,growth at 100 µM,[31],-2%
same,growth at 1 µM,[32],40 to 43%
